According to patent US8404709B2, “Substituted 4-aryl-1,4-dihydro-1,6-naphthyridines and use thereof” (Bayer Intellectual Property GmbH, priority 2007, dated 2013):

Target: T1, human mineralocorticoid receptor (MR) (Homo sapiens, UniProt P08235)
T1 construct: expressed in transfected cells; host or cells: CHO K1
T1 sequence (P08235 734-984 limits assumed): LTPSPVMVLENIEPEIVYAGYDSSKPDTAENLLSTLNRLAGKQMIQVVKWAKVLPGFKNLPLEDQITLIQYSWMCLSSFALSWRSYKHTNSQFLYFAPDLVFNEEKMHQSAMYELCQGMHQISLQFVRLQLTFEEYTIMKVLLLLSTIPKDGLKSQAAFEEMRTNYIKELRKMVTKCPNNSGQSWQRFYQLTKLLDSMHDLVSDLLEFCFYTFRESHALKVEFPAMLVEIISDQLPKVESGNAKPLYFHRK
Assay: Cellular in vitro assay to determine the inhibitory MR activity (GAL4-MR chimera, luciferase reporter, CHO K1 cells)
Assay type: cell-based
Conditions: recombinant CHO K1 cells, GAL4-MR ligand-binding domain chimera, agonist aldosterone, luciferase readout
Source text: 1. Cellular In Vitro Assay to Determine the Inhibitory MR Activity and MR Selectivity Compared with other Steroid Hormone Receptors
Antagonists of the human mineralocorticoid receptor (MR) are identified, and the activity of the compounds described herein is quantified with the aid of a recombinant cell line. The cell is originally derived from a hamster ovary epithelial cell (Chinese Hamster Ovary, CHO K1, ATCC: American Type Culture Collection, VA 20108, USA).
An established chimera system in which the ligand-binding domains of human steroid hormone receptors are fused to the DNA-binding domain of the yeast transcription factor GAL4 is used in this CHO K1 cell line. The GAL4-steroid hormone receptor chimeras produced in this way are cotransfected and stably expressed with a reporter construct in the CHO cells.
To generate the GAL4-steroid hormone receptor chimeras, the GAL4 DNA binding domain (amino acids 1-147) from the vector pFC2-dbd (from Stratagene) is cloned with the PCR-amplified ligand-binding domains of the mineralocorticoid receptor (MR, amino acids 734-985), of the glucocorticoid receptor (GR, amino acids 443-777), of the progesterone receptor (PR, amino acids 680-933) and of the androgen receptor (AR, amino acids 667-919) into the vector pIRES2 (from Clontech). The reporter construct, which comprises five copies of the GAL4 binding site upstream of a thymidine kinase promoter, leads to expression of firefly-luciferase (Photinus pyralis) after activation and binding of the GAL4-steroid hormone receptor chimeras by the respective specific agonists aldosterone (MR), dexamethasone (GR), progesterone (PR) and dihydrotestosterone (AR).
The MR, GR, PR and AR cells are plated out in medium (Optimem, 2.5% FCS, 2 mM glutamine, 10 mM HEPES) in 96- (or 384- or 1536-) well microtiter plates on the day before the assay and are kept in a cell incubator (96% humidity, 5% v/v CO2, 37° C.). On the day of the assay, the substances to be tested are taken up in the abovementioned medium and added to the cells. About 10 to 30 minutes after addition of the test substances, the respective specific agonists of the steroid hormone receptors are added. After a further incubation time of 5 to 6 hours, the luciferase activity is measured with the aid of a video camera. The measured relative light units as a function of the substance concentration result in a sigmoidal stimulation curve. The IC50 values are calculated with the aid of the GraphPad PRISM computer program (Version 3.02).

Row | Compound | IC50
1 | CCOc1nccc2c1C(c1cccc3c(=O)cc(C)oc13)C(C#N)=C(C)N2 (stereo not drawn) [Example 4, 5-Ethoxy-2-methyl-4-(2-methyl-4-oxo-4H-chromen-8-yl)-1,4-dihydro-1,6-naphthyridine-3-carbo-nitrite] | 273 nM
2 | CCS(=O)(=O)Oc1nccc2c1C(c1cccc3c(=O)cc(C)oc13)C(C(C)=O)=C(C)N2 (stereo not drawn) [Example 10, 3-Acetyl-2-methyl-4-(2-methyl-4-oxo-4H-chromen-8-yl)-1,4-dihydro-1,6-naphthyridin-5-yl ethane-sulfonate] | 75 nM
3 | CCOc1nc(C)cc2c1C(c1ccc(C#N)cc1OC)C(C#N)=C(C)N2 (stereo not drawn) [Example 35, 4-(4-Cyano-2-methoxyphenyl)-5-ethoxy-2,7-dimethyl-1,4-dihydro-1,6-naphthyridine-3-carbonitrile] | 122 nM
4 | CCOc1nccc2c1C(c1ccc(C#N)cc1OC)C(C#N)=C(C)N2 (stereo not drawn) [Example 25, 4-(4-Cyano-2-methoxyphenyl)-5-ethoxy-2-methyl-1,4-dihydro-1,6-naphthyridine-3-carbonitrile] | 87 nM

Next, values leading:

Row | IC50 | Compound
5 | 4 nM | CCOc1nccc2c1C(c1ccc(C#N)c3ccccc13)C(C(C)=O)=C(C)N2 (stereo not drawn) [Example 32, 4-(3-Acetyl-5-ethoxy-2-methyl-1,4-dihydro-1,6-naphthyridin-4-yl)-1-naphthonitrile]
6 | 31 nM | CCOc1nccc2c1C(c1ccc(C#N)cc1CC)C(C(C)=O)=C(C)N2 (stereo not drawn) [Example 24, 4-(3-Acetyl-5-ethoxy-2-methyl-1,4-dihydro-1,6-naphthyridin-4-yl)-3-ethylbenzonitrile]
7 | 35 nM | CCOc1nccc2c1C(c1ccc(C#N)cc1OC)C(C#N)=C(C(F)(F)F)N2 (stereo not drawn) [Example 33, 4-(4-Cyano-2-methoxyphenyl)-5-ethoxy-2-(trifluoromethyl)-1,4-dihydro-1,6-naphthyridine-3-carbonitrile]
8 | 30 nM | CCOc1nccc2c1C(c1ccc(C#N)cc1OC(F)(F)F)C(C(C)=O)=C(C)N2 (stereo not drawn) [Example 21, 4-(3-Acetyl-5-ethoxy-2-methyl-1,4-dihydro-1,6-naphthyridin-4-yl)-3-(trifluoromethoxy)benzonitrile]
9 | 73 nM | CCOc1ncc(C)c2c1C(c1ccc(C#N)cc1OC)C(C#N)=C(C)N2 (stereo not drawn) [Example 37, 4-(4-Cyano-2-methoxyphenyl)-5-ethoxy-2,8-dimethyl-1,4-dihydro-1,6-naphthyridine-3-carbonitrile]
